Key:
[1] = test system: S. mutans 10449; assay: Inhibitory effect on extracellular polysaccharide synthesis, standard strain; assay type: cell-based, Streptococcus mutans; settings: 1 mM
Method: (§1) In order to identify the effect by which medium-chain fatty acids inhibit plaque matrix formation, inhibitory effect and concentration of extracellular polysaccharide synthesis were determined in seven kinds of standard cariogenic plaque bacteria. Also, the inhibitory effect of extracellular polysaccharide synthesis for 20 kinds of cariogenic plaque bacteria, separated from the human oral cavity, was measured. Liquid culture media used were: Todd-Hewitt broth of Streptococcus, Lactobacilli MRS broth of Lactobacillus and Brain Heart Infusion broth of Actinomyces. 0.1 ml of bacterial (or cell) suspension (OD600 =0.5) of each bacteria was inoculated to 5.9 ml of culture media containing 1 mM of medium-chain fatty acids and 2% of glucose, and was cultured for 24^~ 48 hours in 10% CO2 incubator. After culturing, the resultant was centrifuged to precipitate at 5,000×g for 15 minutes, then soluble extracellular polysaccharide was separated and purified from the supernatant and insoluble extracellular polysaccharide from the cell pellet, and then these were quantified.

[2] = test system: S. mutans BHT; assay: as above; assay type: cell-based, Streptococcus mutans; settings: 1 mM
Method: as §1

[3] = test system: S. mutans JC-2; assay: as above; assay type: cell-based, Streptococcus mutans; settings: 1 mM
Method: as §1

[4] = test system: L. casei ATCC 27216; assay: as above; assay type: cell-based, Lactobacillus casei; settings: 1 mM, 2% glucose, 24-48 hours
Method: as §1

[5] = test system: L. casei ATCC 4646; assay: as above; assay type: cell-based, Lactobacillus casei
Method: as §1

[6] = test system: A. viscosus ATCC 15987; assay: as above; assay type: cell-based; settings: 1 mM, 2% glucose, 24-48 hours
Method: as §1

[7] = test system: S. sanguis 10556; assay: as above; assay type: cell-based; settings: 1 mM
Method: as §1

[8] = test system: Streptococcus; assay: Inhibitory effect on extracellular polysaccharide synthesis, summary over Streptococcus standard strains; assay type: cell-based; settings: 1 mM, compared with control group, range over strains, read-out: synthesis of soluble extracellular polysaccharide inhibited by
Method: as §1

[9] = test system: Lactobacillus; assay: Inhibitory effect on extracellular polysaccharide synthesis, summary over Lactobacillus standard strains; assay type: cell-based; settings: 1 mM, compared with control group, according to strains, read-out: synthesis of soluble extracellular polysaccharide inhibited/reduced by
Method: as §1

[10] = Extracellular polysaccharide in liquid medium with fatty acid, no bacteria
Method: as §1

[11] = test system: cariogenic plaque bacteria; assay: Inhibitory effect on extracellular polysaccharide synthesis (summary); assay type: cell-based, Streptococcus, Lactobacillus and Actinomyces; settings: 1 mM; ranking
Method: as §1, with “quantified. So the experimental results that represent inhibitory effect of medium-chain fatty acids upon extracellular polysaccharide synthesis, are shown in table 1, 2, 3 and 4.” for “quantified.”

[12] = test system: cariogenic plaque bacteria (standard strains); assay: Inhibitory effect of acid production, standard strains; assay type: cell-based, Streptococcus, Lactobacillus and Actinomyces; settings: ranking; FIG. 1
Method: In order to identify the action by which medium-chain fatty acids inhibit acid production, the inhibitory effect and concentration of acid production were determined in seven kinds of standard cariogenic plaque bacteria. Also, the inhibitory effect of acid production for 20 kinds of cariogenic plaque bacteria, separated from the human oral cavity, was assayed. Liquid culture media used were: Todd-Hewitt broth of Streptococcus, Lactobacilli MRS broth of Lactobacillus and Brain Heart Infusion broth of Actinomyces. […] The final pH of the culture medium was measured after culturing for 24^~ 48 hours in 10% CO2 incubator.

[13] = test system: cariogenic plaque bacteria (standard strains); assay: Inhibitory effect of bacterial growth, standard strains; assay type: cell-based, Streptococcus, Lactobacillus and Actinomyces; settings: ranking; FIG. 3
Method: In order to evaluate how medium-chain fatty acids influence bacterial growth of cariogenic plaque bacteria, the influence on each bacteria was evaluated after selecting seven kinds of bacterial strains as standard bacteria among cariogenic plaque bacteria. […] The results that medium-chain fatty acids have on influencing bacterial growth of cariogenic plaque bacteria is shown in FIG. 3. And the result of measuring inhibitory effect of bacterial growth of 20 kinds of cariogenic plaque bacteria separated from the human oral cavities is shown in FIG. 4.

With `CCCCCCCCC(=O)[O-].[Na+]` [C9, sodium nonanoate] the “Extracellular polysaccharide, insoluble” value ([1]; 2% glucose, 24-48 hours, control 0.8 ± 0.3) was 0.6 ± 0.2 µg/mL, the “Extracellular polysaccharide, soluble” value ([1]; 2% glucose, 24-48 hours, control 74.6 ± 1.8) was 50.8 ± 12.2 µg/mL and the inhibition at 1000 µM ([1]; Streptococcus mutans, 10449, vs control, read-out: Inhibitory rate, soluble) was 32%. For the same molecule, the “Extracellular polysaccharide, insoluble” value ([2]; 2% glucose, 24-48 hours, control 0.5 ± 0.1) was 0.3 ± 0.1 µg/mL, the inhibition at 1000 µM ([2]; Streptococcus mutans, vs control, read-out: Inhibitory rate, soluble) was 75% and the “Extracellular polysaccharide, insoluble” value ([3]; 2% glucose, 24-48 hours, control 1.1 ± 0.2) was 0.9 ± 0.3 µg/mL. The “Extracellular polysaccharide, soluble” value ([3]; 2% glucose, 24-48 hours, control 34.4 ± 3.9) was 6.2 ± 3.5 µg/mL, the inhibition at 1000 µM ([3]; Streptococcus mutans, JC2, vs control, read-out: Inhibitory rate, soluble) was 82% and the “Extracellular polysaccharide, insoluble” value ([4]; control 5.9 ± 0.4) was 5.1 ± 0.5 µg/mL. For the same molecule, the “Extracellular polysaccharide, soluble” value ([4]; control 67.3 ± 4.5) was 70.1 ± 3.3 µg/mL, the “Extracellular polysaccharide, insoluble” value ([5]; 1 mM, 2% glucose, 24-48 hours, control 5.3 ± 0.5) was 3.8 ± 0.5 µg/mL and the “Extracellular polysaccharide, soluble” value ([5]; 1 mM, 2% glucose, 24-48 hours, control 43.6 ± 7.0) was 31.9 ± 4.0 µg/mL. The inhibition at 1000 µM ([5]; Lacticaseibacillus casei, ATCC4646, read-out: Inhibitory rate, soluble) was 27%, the “Extracellular polysaccharide, insoluble” value ([6]; control 2.1 ± 0.2) was 1.4 ± 0.5 µg/mL and the “Extracellular polysaccharide, soluble” value ([6]; control 222.8 ± 3.3) was 241.6 ± 3.9 µg/mL. The “Extracellular polysaccharide, insoluble” value ([7]; 2% glucose, 24-48 hours, control 0.6 ± 0.3) was 0.5 ± 0.2 µg/mL, the “Extracellular polysaccharide, soluble” value ([7]; 2% glucose, 24-48 hours, control 25.9 ± 4.3) was 17.4 ± 8.9 µg/mL and the inhibition at 1000 µM ([7]; vs control, read-out: Inhibitory rate, soluble) was 33%. The inhibition at 1000 µM [8] was 32 to 82%, the inhibition at 1000 µM [9] was 27% and the “Extracellular polysaccharide, soluble” value ([10]; Table 1, 1 mM) was 2.0 ± 0.7 µg/mL. The “Extracellular polysaccharide, soluble” value ([10]; Table 2, 1 mM) was 4.6 ± 0.2 µg/mL, the “Extracellular polysaccharide, soluble” value ([10]; Table 3, 1 mM) was 8.2 ± 0.4 µg/mL and the “inhibitory effect of extracellular polysaccharide synthesis, sequence” value [11] was “sodium laurate>sodium capriate>sodium nonanoate”. The “inhibitory effect of acid production, sequence” value [12] was “sodium laurate>sodium capriate>sodium nonanoate” and the “inhibitory effect of bacterial growth, sequence” value [13] was “sodium laurate>sodium capriate>sodium nonanoate”.
With `CCCCCCCCCC(=O)O` [C10, sodium capriate] the “inhibitory effect of extracellular polysaccharide synthesis, sequence” value [11] was “sodium laurate>sodium capriate>sodium nonanoate”, the “inhibitory effect of acid production, sequence” value [12] was “sodium laurate>sodium capriate>sodium nonanoate” and the “inhibitory effect of bacterial growth, sequence” value [13] was “sodium laurate>sodium capriate>sodium nonanoate”.

From patent publication US6180599A, “Pharmaceutical composition, containing medium-chain fatty acids as active ingredients, for dental caries and periodontal disease” (priority 1997, dated 2001)
